Measured values published in ChEMBL document CHEMBL4257551, “Glycyrrhizic acid from licorice down-regulates inflammatory responses via blocking MAPK and PI3K/Akt-dependent NF-κB signalling pathways in TPA-induced skin inflammation” (2018).

What was measured:
Assay type in all cases: functional
Mus musculus [1] = assay: Antiinflammatory activity against TPA-induced ear edema in BALB/c mouse assessed as weight of ear punches at 5 mM administered topically for 15 mins prior to TPA challenge and measured after 3 hrs (reference value: 8.3 +/- 0.1 mg)
Mus musculus [2] = assay: Antiinflammatory activity against TPA-induced ear edema in BALB/c mouse assessed as weight of ear punches at 5 mM administered topically for 15 mins prior to TPA challenge and measured after 6 hrs (reference value: 12.5 +/- 0.3 mg)
Mus musculus [3] = assay: Antiinflammatory activity against TPA-induced ear edema in BALB/c mouse assessed as weight of ear punches at 5 mM administered topically for 15 mins prior to TPA challenge and measured after 12 hrs (reference value: 12.4 +/- 0.1 mg)
Mus musculus [4] = assay: Antiinflammatory activity against TPA-induced ear edema in BALB/c mouse assessed as weight of ear punches at 5 mM administered topically for 15 mins prior to TPA challenge and measured after 24 hrs (reference value: 12.1 +/- 0.2 mg)
Mus musculus [5] = assay: Antiinflammatory activity against TPA-induced ear edema in BALB/c mouse assessed as weight of ear punches at 5 mM administered topically for 15 mins prior to TPA challenge and measured after 48 hrs (reference value: 11.4 +/- 0.3 mg)

SMILES: C[C@]12C=CC(=O)C=C1CC[C@@H]1[C@@H]2[C@@H](O)C[C@@]2(C)[C@H]1CC[C@]2(O)C(=O)CO [PREDNISOLONE]
- Activity (Mus musculus [1]): 5.4 mg
- Activity (Mus musculus [2]): 5.6 mg
- Activity (Mus musculus [3]): 5.7 mg
- Activity (Mus musculus [4]): 5.6 mg
- Activity (Mus musculus [5]): 5.6 mg
